# Data taken from US20240261271A1, “APPLICATION OF HYDRONIDONE IN PREPARATION OF DRUG FOR TREATING OR PREVENTING CHRONIC HEPATITIS B WITH LIVER FIBROSIS” (priority 2021, published 2024).
# Columns and labels:
# HBV DNA = assay: Phase II clinical study: negative conversion rate of HBV DNA; assay type: in vivo, human; conditions: for proportion of the subjects with HBV DNA substantially converted to negative: after 52 weeks of treatment, with entecavir
# Method: This is a randomized, double-blind, placebo-controlled, multicenter, and dose-finding phase II clinical study with foundational treatment. In the clinical trial, three different dose test groups and a placebo control group were set on the basis of the entecavir capsule antiviral treatment, and the planned sample amount of each group was 60 cases, totaling 240 cases. The three dose test groups were 180 mg group, 270 mg group, and 360 mg group, respectively. The proportion of each test group to the control group was 1:1:1:1, and the cases were distributed randomly. […] Negative conversion rate of HBV DNA after treatment between the groups was compared using CMH-λ2 test or Fisher's exact probability method. • 2. Liver tissue elasticity reduction after treatment between the groups was compared using Kruskal-Wallis H test. • 3. […] The recovery rate of the liver function index after treatment between the groups was compared using CMH-λ2 test or Fisher's exact probability method, and the found values of each index between the groups were compared using variance analysis or Kruskal-Wallis H test.
# [1] = Phase II clinical study: safety (adverse events, adverse effects, SAE); assay type: in vivo; conditions: 180, 270 and 360 mg groups vs placebo, 52 weeks, adverse effects and SAE incidence rates not statistically different
# Description: Safety indexes: vital signs, laboratory indexes, adverse events/adverse effects, and the like.
# All cases that had been randomized, used the study drug at least once, and had safety evaluation data after medication, constitute the safety population for this study.
# Safety indexes include adverse events/adverse effects, laboratory indexes, physical examinations, and the like. • 1. The incidence rates of the adverse events/adverse effects of each group were compared using CMH-λ2 test or Fisher's exact probability method, and the relative frequency and severity of all the adverse events in the test, the relationship with the drug, the treatment, the outcome, and the like were described in a table. • 2. The physical examinations were described in a table for normal/abnormal changes after the experiment. • 3. The laboratory indexes were described in a table for normal/abnormal changes, abnormal exacerbation, and the like before and after the test, and the relationship between the laboratory indexes and the test drug was evaluated. The quantitative indexes were statistically described for each time point measured, the variation inside the groups was compared using Wilcoxon signed rank test, and the variation between the groups was compared using Kruskal-Wallis H test.
smiles,measurement,setting,value
Cc1ccc(=O)n(-c2ccc(O)cc2)c1 [hydronidone],proportion of the subjects with HBV DNA substantially converted to negative,HBV DNA; 180 mg group,34 (94.44%) n(%)
same,proportion of the subjects with HBV DNA substantially converted to negative,HBV DNA; 270 mg group,34 (97.14%) n(%)
same,proportion of the subjects with HBV DNA substantially converted to negative,HBV DNA; 360 mg group,32 (94.12%) n(%)
same,influence on the reduction of the virus titer by entecavir and the ALT recovery,"HBV DNA; each hydronidone test group, 52 weeks",no influence
same,safety,[1],good
